This note sets out measurements from patent US20250051277A1, “DELIVERY OF THERAPEUTIC ALKALOID COMPOUNDS” (Sensorium Therapeutics, Inc., priority 2021, published 2025).

The nature of data set [1]: Hydrolysis Assay of Example A1 (conversion by LCMS). The settings on record: pH = 2.0, 25° C., 0.5 mM, 0.01M HCl; 0-48 h. In kind it is physicochemical. The method, then:
The hydrolysis kinetics was under a certain temperature and measured by LCMS at a certain time interval. The corresponding LCMS chromatograms were recorded and the conversions were calculated. The hydrolysis conditions and the data were summarized in below table. LCMS spectra were obtained using Agilent 1200/G1956A or SHIMADZU LCMS-2020. Standard LCMS conditions were as follows (running time 1.55 minutes): • Acidic condition: Mobile Phase A: 0.0375% TFA in water (v/v). Mobile Phase B: 0.01875% TFA in acetonitrile (v/v); Column: Kinetex EVO C18 30*2.1 mm, 5 μm. • Basic condition: Mobile Phase A: 0.025% NH3·H2O in water (v/v). Mobile Phase B: Acetonitrile; Column: Kinetex EVO C18 2.1×30 mm, 5 μm. • Conversion (%)=peak area 1/(peak area 1+peak area 2)*100%, peak area 1 is the integration of hydrolyzed product, peak area 2 is the integration of starting material.

Data set [2] in a line: Plasma Stability Assay of Example A4, rat plasma. The settings on record: 37° C., 10 μM.
Method: 50 μL aliquots of positive controls and test compounds spiked into rat or human plasma (n=2) were added to a pre-warmed plate (37° C.) and shaken at 50 rpm. At each respective time point, the reaction was stopped by adding 500 μL of acetonitrile containing internal standards (100 nM aprozolam, 200 nM caffeine, 100 nM tolbutamide). All samples were vortexed for 10 minutes, followed by centrifugation at 3,220 g for 30 minutes to precipitate proteins. 100 μL of the supernatant is transferred to a new plate. The supernatant will be diluted with ultrapure water according to the LC-MS signal response and peak shape.
Data set [3] is classed as physicochemical. The conditions noted are these: SGF with pepsin, pH 1.5, 37° C., 0.5 mM.
Data set [4] can be described thus: Plasma Stability Assay of Example A4, human plasma. The settings on record: 37° C., 10 μM.
Data set [5] is classed as physicochemical. The conditions noted are these: DI water, 25° C., 0.5 mM.
A further data set addresses SERT (Homo sapiens (Human), UniProt P31645). In kind it is cell-based. The conditions noted are these: stable 5HTT cells, 30 minutes at 37° C.
For data set [6] the following is noted: in vivo; for Plasma levels of 001: mouse, iv, 2 mg/kg. Here is the method: Male C57/BL6 mice were used to evaluate each compound, with n=3 mice/time point.
Animals were administered through intravenous route with solution formulation at 2 mg/kg dose. […] Following blood collection, immediately, animals were sacrificed, and vena-cava was cut open and blood was drained. […] Brain samples were collected from set of three mice at each time point. […] Brain samples were homogenized using 2 volumes of ice-cold PBS (pH-7.4) of brain weight. […] Concentrations of compound (or compound and metabolite) in mouse plasma and brain samples were determined by fit for purpose LC-MS/MS method.

The conditions of data set [7]: 5 μM.
For data set [8] the following is noted: 5 μM. The source holds these as a separate data set.

Where two headings read alike, the source gives them in different places.

`COc1ccc([C@@]23CCC(OC(C)=O)=C[C@@H]2N(C)CC3)cc1OC` [Compound 026, [(3aS,7aS)-3a-(3,4-dimethoxyphenyl)-1-methyl-3,4,5,7a-tetrahydro-2H-indol-6-yl]acetate]: the “Conversion (%)” value in data set [1] is recorded as 0%. Further, the “Notes (hydrolysis)” value in [1] is given as “Stable;”. The “Compound 001 (%) (metabolite mesembrine), Rat Plasma” value was 96.2% in data set [2] (time 0.0 min); more than 99% in data set [2] (time 10 min); more than 99% in data set [2] (time 30 min); more than 99% in data set [2] (time 60 min); more than 99% in data set [2] (time 120 min); more than 99% in data set [2] (time 240 min). The “Prodrug (%) remaining, Rat Plasma” value in data set [2] (time 0.0 min) is reported as 100.0%; in data set [2] (time 10 min) it was 0.0%; in data set [2] (time 30 min) it was 0.0%; in [2] (time 60 min) it was 0.0%; in [2] (time 120 min), 0.0%; in data set [2] (time 240 min), 0.0%. Further, the “Condition 1 Conversion (%)” value in [3] (time 1 min), in data set [3] (time 5 min), in data set [3] (time 30 min), in data set [3] (time 1 h), in [3] (time 4 h) and in data set [3] (time 24 h) was 0% throughout. Further, the “Compound 001 (%) (metabolite mesembrine), Human Plasma” value in data set [4] (time 0.0 min), in data set [4] (time 10 min), in data set [4] (time 30 min), in data set [4] (time 60 min), in data set [4] (time 120 min) and in [4] (time 240 min) was more than 99% throughout. Moreover, the “Prodrug (%) remaining, Human Plasma” value in [4] (time 0.0 min) came out at 100.0%; in [4] (time 10 min), 40.3%; in data set [4] (time 30 min), 23.5%; in data set [4] (time 60 min), 12.0%; in data set [4] (time 120 min) it was 3.4%; in data set [4] (time 240 min) it was 0.8%. In addition, the “Condition 2 Conversion (%)” value in data set [5] (time 1 min), in [5] (time 5 min), in data set [5] (time 30 min), in data set [5] (time 1 h), in data set [5] (time 4 h) and in data set [5] (time 24 h) was 0% in each case.

Turning to `CO/N=C1/CC[C@@]2(c3ccc(OC)c(OC)c3)CCN(C)[C@H]2C1` [Compound 035, (Z, 3aS,7aS)-3a-(3,4-dimethoxyphenyl)-N-methoxy-1-methyl-2,3,4,5,7,7a-hexahydroindol-6-imine], the “Condition 1 Conversion (%)” value was determined as 0% in data set [3] (time 1 min); 0% in data set [3] (time 5 min); 5.4% in data set [3] (time 30 min); 13.1% in data set [3] (time 1 h); 35.2% in data set [3] (time 4 h); 38.9% in data set [3] (time 24 h). The IC50 on SERT was less than 50 nM.

Take `CO/N=C1\CC[C@@]2(c3ccc(OC)c(OC)c3)CCN(C)[C@H]2C1` [Compound 038, (E,3aS,7aS)-3a-(3,4-dimethoxyphenyl)-N-methoxy-1-methyl-2,3,4,5,7,7a-hexahydroindol-6-imine]: the “Condition 1 Conversion (%)” value is listed as 0% in [3] (time 1 min); 0% in [3] (time 5 min); 1.3% in data set [3] (time 30 min); 11.9% in data set [3] (time 1 h); 31.3% in data set [3] (time 4 h); 49.9% in [3] (time 24 h). In addition, at SERT, the IC50 is less than 50 nM.

Turning to `COc1ccc(C23CCN(C)C2CC2(CC3)OCCO2)cc1OC` (stereo not drawn) [Compound 044], the “Condition 1 Conversion (%)” value in data set [3] (time 1 min), in data set [3] (time 5 min), in [3] (time 30 min), in data set [3] (time 1 h), in data set [3] (time 4 h) and in data set [3] (time 24 h) was 0% throughout. Besides, the IC50 on SERT was more than 1000 nM.

`COc1ccc([C@]23CCN(C)[C@H]2CC2(CC3)SCCS2)cc1OC` [Compound 045, (3′aS,7′aS)-3′a-(3,4-dimethoxyphenyl)-1′-methyl-spiro[1,3-dithiolane-2,6′-2,3,4,5,7,7a-hexahydroindole]]: the “Condition 1 Conversion (%)” value in data set [3] (time 1 min), in [3] (time 5 min), in data set [3] (time 30 min), in data set [3] (time 1 h), in [3] (time 4 h) and in [3] (time 24 h) was 0% each time. The compound further gave an IC50 on SERT of more than 1000 nM.

With `CCC(=O)OC1=C[C@@H]2N(C)CC[C@]2(c2ccc(OC)c(OC)c2)CC1` [Compound 317, [(3aS,7aS)-3a-(3,4-dimethoxyphenyl)-1-methyl-3,4,5,7a-tetrahydro-2H-indol-6-yl]propanoate], the “Condition 1 Conversion (%)” value in [3] (time 1 min), in data set [3] (time 5 min), in data set [3] (time 30 min), in data set [3] (time 1 h), in [3] (time 4 h) and in data set [3] (time 24 h) was 0% each time. The “quantifiable levels of 001 in plasma up to” value in data set [6] (male, C57BL/6, mouse) turned out to be 60 min. Moreover, the “Plasma levels of 001” value in data set [6] is reported as “not detectable”. Besides, the “Condition 2 Conversion (%)” value in data set [5] (time 1 min), in [5] (time 5 min), in data set [5] (time 30 min), in data set [5] (time 1 h), in data set [5] (time 4 h) and in [5] (time 24 h) was 0% each time.

Turning to `COc1ccc([C@@]23CCC(OC(=O)CC(C)C)=C[C@@H]2N(C)CC3)cc1OC` [Compound 334, [(3aS,7aS)-3a-(3,4-dimethoxyphenyl)-1-methyl-3,4,5,7a-tetrahydro-2H-indol-6-yl]3-methylbutanoate], the “Human Plasma Compound 001 (%)” value in data set [7] (15 min) is on record as 63.6%; in data set [7] (30 min), 63.7%; in [7] (60 min) it was 65.4%; in data set [7] (120 min) it was 65.1%; in [7] (240 min) it was 63.8%. The “Condition 1 Conversion (%)” value in [3] (time 1 min), in data set [3] (time 5 min), in data set [3] (time 30 min), in [3] (time 1 h), in data set [3] (time 4 h) and in data set [3] (time 24 h) was 0% in each case. Also, in data set [6] (male, C57BL/6, mouse), the “quantifiable levels of 001 in brain up to” value stood at 2 h. In data set [6] (male, C57BL/6, mouse), the “quantifiable levels of 001 in plasma up to” value turned out to be 60 min. In addition, in data set [6], the “Plasma levels of 001” value is reported as “not detectable”. Further, the “Mouse Plasma Compound 001 (%)” value in [8] (15 min) is given as 73.1%; in data set [8] (30 min), 70.9%; in [8] (60 min) it was 68.8%; in data set [8] (120 min), 70.0%; in data set [8] (240 min) it was 68.5%. Besides, the “Condition 2 Conversion (%)” value in [5] (time 1 min), in [5] (time 5 min), in data set [5] (time 30 min), in data set [5] (time 1 h), in data set [5] (time 4 h) and in data set [5] (time 24 h) was 0% in each case.

The term IC50 denotes the concentration needed to halve the response being measured. Low values mean inhibition by little substance, high ones a need for much substance.
